Reference: US20260159481A1, “INDOLE DERIVATIVE WITH SUBSTITUENT AND PHARMACEUTICAL USE” (MITOIMMUNE THERAPEUTICS INC., priority 2023, published 2026)

Legend:
[1] = system: hippocampal neurons (HT-22); test: Protective effect against cell death due to RSL3 (LDH release), HT-22; format: cell-based; conditions: Mus musculus, RSL3 0.3 μM, 24 hours
Experimental: (§1) To confirm cell death protection effects on cardiac cells, adrenal medullary cells, renal fibroblasts, retinal epithelial cells, lung epithelial cells, renal proximal tubular epithelial cells, hippocampal neurons and fibroblasts, each type of cells were seeded at 4×10^3 to 1.2×10^4 cells/well in a 96-well plate and cultured for 18 to 24 hours. The example compounds were diluted to have the final concentration of 0.001, 0.003, 0.01, 0.3, 1, 3, and 10 μM, respectively, and then added to different wells and cultured for 15 to 20 minutes. […] To confirm the cell death protection effect of the example compounds, the degree of extracellular secretion of lactate dehydrogenase (LDH) was measured using a cytotoxicity LDH assay kit [Dojindo; CK12]. Briefly, at the end of 24-hour treatment of each type of cells with RSL3, 70 μL of the supernatant was taken from the 96-well plate where the cells were cultured and transferred to a new 96-well plate. The assay buffer included in the kit was added at 70 μL/well (equal to that of the sample) and the plate was covered with foil to block light and allowed to react for 15 to 20 minutes at room temperature. While observing a color change of the sample, 35 µL/well of a stop solution was added, an absorbance at 490 nm was measured using an iD3 spectrophotometer, and an EC50 value was calculated.

[2] = system: renal proximal tubular epithelial cells (HK2); test: Protective effect against cell death due to RSL3 (LDH release), HK2; format: cell-based; conditions: Epithelial cell, RSL3 0.3 μM, 24 hours
Experimental: as §1

[3] = system: renal fibroblasts (NRK-49F); test: Protective effect against cell death due to RSL3 (LDH release), NRK-49F; format: cell-based; conditions: Rattus norvegicus, RSL3 3 μM, 24 hours
Experimental: as §1

[4] = system: lung epithelial cells (MLE-12); test: Protective effect against cell death due to RSL3 (LDH release), MLE-12; format: cell-based; conditions: MLE12, RSL3 1 μM, 24 hours
Experimental: as §1

[5] = system: adrenal medullary cells (PC-12); test: Protective effect against cell death due to RSL3 (LDH release), PC-12; format: cell-based; conditions: Rattus norvegicus, RSL3 0.3 μM, 24 hours
Experimental: as §1

[6] = Pharmacokinetics in plasma after oral administration to ICR mice; format: in vivo; conditions: oral 10 mg/kg
Experimental: Pharmacokinetic parameters may include the maximum plasma concentration (Cmax), the time to reach the maximum plasma concentration (Tmax), the area under the plasma concentration-time curve (AUCinf), and a half-life (t1/2).
Example Compound 27 was orally administered to ICR mice at a dose of 10 mg/kg. Drug concentrations in the plasma of mice were measured by HPLC-MS/MS spectroscopy 0.5, 1, 2, 4, 8, or 24 hours after administration.
The comparative example compound was orally administered to ICR mice at a dose of 10 mg/kg. The drug concentrations in the plasma of the mice were measured by HPLC-MS/MS 0.5, 1, 2, 4, 8, or 24 hours after administration.

[7] = system: retinal epithelial cells (ARPE-19); test: Protective effect against cell death due to RSL3 (LDH release), ARPE-19; format: cell-based; conditions: Homo sapiens, RSL3 0.3 μM, 24 hours
Experimental: as §1

cardiac cells (H9C2) [8] = test: Protective effect against cell death due to RSL3 (LDH release), H9C2; format: cell-based; conditions: Rattus norvegicus, RSL3 0.5 μM, 24 hours
Experimental: as §1

fibroblasts (NIH/3T3) = test: Protective effect against cell death due to RSL3 (LDH release), NIH/3T3; format: cell-based; conditions: Mus musculus, NIH3T3, RSL3 3 μM, 24 hours
Experimental: as §1

cardiac cells (H9C2) [9] = test: Protective effect against t-BHP-induced cell death in cardiac cells (LDH release); format: cell-based; conditions: Rattus norvegicus, t-BHP 400 PM, 2 hours, read-out: EC50, protective effect against cell death due to t-BHP induction
Experimental: To confirm a protective effect on cardiac cells, H9C2 cells were seeded at 1.5×10^4 cells/well in a 96-well plate and cultured for 24 hours. The example compounds were diluted to have the final concentration of 0.001, 0.01, 0.03, 0.1, 0.3, 1, 3, 10, and 30 PM, respectively, and then added to different wells, and the resulting cells were cultured for 15 to 20 minutes. Tert-butyl hydroperoxide (t-BHP) was treated to have the final concentration of 400 PM, and the resulting cells were cultured for 2 hours. To confirm the cell death protection effect of each compound, the degree of extracellular secretion of lactate dehydrogenase (LDH) was measured using a cytotoxicity LDH assay kit [Dojindo; CK12]. Briefly, after 2 hours of t-BHP treatment on the cells, 70 μL of the supernatant was taken from the 96-well plate where the cells were cultured and transferred to a new 96-well plate. The assay buffer included in the kit was added at 70 μL/well (equal to that of the sample) and the plate was covered with foil to block light and allowed to react for 15 minutes at room temperature. While observing a color change of each sample, 35 μL/well of a stop solution was added, an absorbance at 490 nm was measured using an iD3 spectrophotometer, and an EC50 value was calculated.

Structure (SMILES): OCCOCc1cc(NC2CCOCC2)c2[nH]c(-c3ccccc3)cc2c1 [Example 27, 2-((2-phenyl-7-((tetrahydro-2H-pyran-4-yl)amino)-1H-indol-5-yl)methoxy)ethan-1-ol]
- EC50 [1]: ≤ 100 nM
- EC50 [2]: ≤ 100 nM
- EC50 [3]: ≤ 100 nM
- EC50 [4]: 100 to 1000 nM
- EC50 [5]: ≤ 100 nM
- Cmax ([6]; mouse, plasma): 4440 ng/mL
- Tmax ([6]; mouse, plasma): 1 h
- half-life ([6]; mouse, plasma): 170 min
- AUC(0-inf) ([6]; mouse, plasma, read-out: area under the plasma concentration-time curve (AUCinf)): 25100 ng·h/mL
- concentration at 0.5 h ([6]; mouse, plasma, 0.5 hr): 3830 ng/mL
- concentration at 1 h ([6]; mouse, plasma, 1 hr): 4440 ng/mL
- concentration at 2 h ([6]; mouse, plasma, 2 hr): 3780 ng/mL
- concentration at 4 h ([6]; mouse, plasma, 4 hr): 2800 ng/mL
- concentration at 8 h ([6]; mouse, plasma, 8 hr): 1080 ng/mL
- concentration at 24 h ([6]; mouse, plasma, 24 hr): 1 ng/mL
- exposure (AUCinf) relative to the comparative example compound [6]: approximately 5 times
- half-life relative to the comparative example compound [6]: approximately 2 times
- maximum plasma concentration (Cmax) relative to the comparative example compound [6]: approximately 2 times
- AUCinf ([6]; plasma): 25,115 ng · hr/mL
- EC50 [7]: ≤ 100 nM
- EC50 (cardiac cells (H9C2) [8]): ≤ 100 nM
- EC50 (fibroblasts (NIH/3T3)): ≤ 100 nM
- EC50 (cardiac cells (H9C2) [9]): ≤ 300 nM
